We go through 22 compounds from patent publication US20240270759A1, “Preparation of SHP2 phosphatase inhibitors and its applications” (Ya Therapeutics Inc, priority 2021, published 2024).

The target in this test is T1, SHP2 full-length protein (Homo sapiens, UniProt Q06124).
T1 construct: purchased BPS Bioscience #79330
T1 sequence (Q06124 1-593): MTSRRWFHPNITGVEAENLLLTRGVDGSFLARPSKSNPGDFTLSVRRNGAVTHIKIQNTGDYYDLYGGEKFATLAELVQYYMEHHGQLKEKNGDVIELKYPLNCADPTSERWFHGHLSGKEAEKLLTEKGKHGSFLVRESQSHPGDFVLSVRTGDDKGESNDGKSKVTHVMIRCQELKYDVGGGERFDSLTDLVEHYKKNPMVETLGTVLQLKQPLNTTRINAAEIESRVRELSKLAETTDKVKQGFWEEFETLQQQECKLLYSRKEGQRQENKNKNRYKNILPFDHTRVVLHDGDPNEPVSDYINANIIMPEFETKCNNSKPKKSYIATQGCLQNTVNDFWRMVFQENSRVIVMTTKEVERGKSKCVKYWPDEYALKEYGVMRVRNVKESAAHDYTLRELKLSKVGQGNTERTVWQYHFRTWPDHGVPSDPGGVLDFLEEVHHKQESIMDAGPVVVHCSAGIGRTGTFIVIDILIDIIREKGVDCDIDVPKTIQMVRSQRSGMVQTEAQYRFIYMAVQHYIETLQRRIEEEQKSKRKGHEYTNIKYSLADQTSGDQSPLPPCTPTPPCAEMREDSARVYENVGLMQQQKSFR
The test is described as follows: SHP2 allosteric inhibition experiment (Homogeneous Full Length SHP-2 Assay Kit). It counts as biochemical. The note with it: full-length SHP2 0.06 nM with SHP-2 activating peptide; ten-point, 1 μM to 0.05 nM; read-out: IC50 Values of Compounds Inhibiting SHP2. From the text: The following further describes and explains the present invention in combination with test examples, but these examples are not meant to limit the scope of the present invention. SHP2 allosteric inhibition experiment
The purpose of this test is to measure the ability of the compounds to inhibit the allosteric activity of the SHP2 full-length protein. Experimental equipment: a centrifuge (5810R) is purchased from Eppendorf Company; pipettes are purchased from Eppendorf Company and Rainin Company, and microplate readers are purchased from BioTek Company of the United States, SynergyH1 multimode microplate reader.
Experimental method: Homogeneous Full Length SHP-2 Assay Kit (BPS Bioscience, #79330) is used to detect SHP2 activity in vitro. First, add 18 μL of Master Mix to 96-well low-adsorption microplate (NUNC, #267342), that is, 0.5 μL of SHP-2 activating Peptide and 5 mM DTT are included in the reaction buffer with a final concentration of 1×. After centrifugation, add 5 μL of the compound to be tested in DMSO (final DMSO content is 1% (V/V) in each well: dissolve the compound to be tested in DMSO to 1 mM, conduct triple dilution with a total of 10 concentration levels ranging from 1 μM to 0.05 nM in the reaction buffer. After diluting SHP2 in 1× reaction buffer to a final concentration of 0.06 nM, add it to the reaction microwell plate, 2 μL per well. Set a full activity control ([…]) and a full inhibition control (without SHP-2) on the reaction plate, and incubate the reaction mixture at room temperature for 60 minutes after centrifugation.
After incubation, add 25 μL of Substrate solution to each well, containing Substrate with a final concentration of 10 μM and DTT with a final concentration of 5 mM, and after centrifugation, continue to incubate at room temperature for 30 minutes. After the reaction, set the excitation wavelength at 340 nm, the emission wavelength at 455 nm, and the gain value to 75 on the Synergy H1 microplate reader (Biotek) for reading.
Take the full activity control and full inhibition control as the values of Max and Min, and calculate the percentage inhibition rate of the wells treated with the compound based on the positive control wells (DMSO control wells) and negative control wells (no kinase added) on the reaction plate, (inhibition rate percentage=100−[(test compound−Min average value)/(Max average value−Min average value)]×100%. IC50 values of test compounds are calculated by fitting percentage of inhibition and ten-point concentration data to a 4-parameter nonlinear logic formula using GraphPad prism.

By IC50 is commonly meant the midpoint of a concentration-inhibition curve.

A value given as a limit tells only on which side of the number the result lay.

Regarding `C[C@@H]1OCC2(CCN(c3ccc4c(=O)n(-c5cccc(Cl)c5Cl)c(=O)[nH]c4c3)CC2)C1N` (stereo in doubt) [Compound 1, 7-((3S,4S)-4-amino-3-methyl-2-oxa-8-azaspiro[4.5]decane-8-yl)-3-(2,3-dichlorophenyl)quinazoline-2,4(1H,3H)-dione], the IC50 is ≤ 10 nM.
The same measure for `NC1COCC12CCN(c1ccc3c(=O)n(-c4cccc(Cl)c4Cl)c(=O)[nH]c3c1)CC2` (stereo in doubt) [Compound 2, (S)-7-(4-amino-2-oxa-8-azaspiro[4.5]decane-8-yl)-3-(2,3-dichlorophenyl)quinazoline-2,4(1H,3H)-dione]: ≤ 10 nM; for `Nc1nccc(-n2c(=O)[nH]c3cc(N4CCC5(CC4)COCC5N)ccc3c2=O)c1Cl` (stereo in doubt) [Compound 3, (S)-3-(2-amino-3-chloropyridine-4-yl)-7-(4-amino-2-oxa-8-azaspiro[4.5]decane-8-yl)q uinazoline-2,4(1H,3H)-dione]: ≤ 10 nM.
As to `NC1c2cnccc2CC12CCN(c1ccc3c(=O)n(-c4cccc(Cl)c4Cl)c(=O)[nH]c3c1)CC2` (stereo in doubt) [Compound 6, (S)-7-(7-Amino-5,7-dihydrospiro [cyclopenta[c]pyridine-6,4′-piperidine]-1′-yl)-3-(2,3-dichlorophenyl)quinazoline-2,4(1H,3H)-dione], the IC50 was ≤ 10 nM.
Turning to `NC1c2cccnc2CC12CCN(c1ccc3c(=O)n(-c4cccc(Cl)c4Cl)c(=O)[nH]c3c1)CC2` (stereo in doubt) [Compound 7, (S)-7-(5-Amino-5,7-dihydrospiro [cyclopenta[b]pyridine-6,4′-piperidine]-1′-yl)-3-(2,3-dichlorophenyl)quinazoline-2,4(1H,3H)-dione], the IC50 was ≤ 10 nM.
In the case of `NC1c2ncccc2CC12CCN(c1ccc3c(=O)n(-c4cccc(Cl)c4Cl)c(=O)[nH]c3c1)CC2` (stereo in doubt) [Compound 8, (S)-7-(7-Amino-5,7-dihydrospiro[cyclopenta[b]pyridine-6,4′-piperidine]-1′-yl)-3-(2,3-dichlorophenyl)quinazoline-2,4(1H,3H)-dione], the IC50 is ≤ 10 nM.
`N[C@H]1c2ccncc2CC12CCN(c1ccc3c(=O)n(-c4cccc(Cl)c4Cl)c(=O)[nH]c3c1)CC2` [Compound 5, (S)-7-(5-Amino-5,7-dihydrospiro[cyclopenta[c]pyridine-6,4′-piperidine]-1′-yl)-3-(2,3-dichlorophenyl)auinazoline-2.4(1H,3H)-dione]: the IC50 was ≤ 10 nM.
Consider `CC1(N)CCN(c2cnc3c(=O)n(-c4cccc(Cl)c4Cl)c(=O)[nH]c3n2)CC1` [Compound 11], for which the IC50 is 10 to 100 nM.
As to `N[C@@H]1c2ccccc2CC12CCN(c1cnc3c(=O)n(-c4cccc(Cl)c4Cl)c(=O)[nH]c3n1)CC2` [Compound 13, (S)-7-(1-amino-1,3-dihydrospiro[indene-2,4′-piperidine]-1′-yl)-3-(2,3-dichlorophenyl) pteridine-2,4(1H,3H)-dione], the IC50 lay within 10 to 100 nM.
The same measure for `N[C@@H]1c2cccnc2CC12CCN(c1cnc3c(=O)n(-c4cccc(Cl)c4Cl)c(=O)[nH]c3n1)CC2` [Compound 14, (S)-7-(5-Amino-5,7-dihydrospiro [cyclopenta[b]pyridine-6,4′-piperidine]-1′-yl)-3-(2,3-dichlorophenyl)pteridine-2,4(1 H,3H)-dione]: 10 to 100 nM; for `N[C@@H]1c2ccncc2CC12CCN(c1cnc3c(=O)n(-c4cccc(Cl)c4Cl)c(=O)[nH]c3n1)CC2` [Compound 15, (S)-7-(5-Amino-5,7-dihydrospiro [cyclopenta[c]pyridine-6,4′-piperidine]-1′-yl)-3-(2,3-dichlorophenyl)pteridine-2,4(1H,3H)-dione]: 10 to 100 nM.
Under `N[C@@H]1c2cnccc2CC12CCN(c1cnc3c(=O)n(-c4cccc(Cl)c4Cl)c(=O)[nH]c3n1)CC2` [Compound 16, (S)-7-(7-Amino-5,7-dihydrospiro [cyclopenta[c]pyridine-6,4′-piperidine]-1′-yl)-3-(2,3-dichlorophenyl)pteridine-2,4(1H,3H)-dione] stands 10 to 100 nM; under `C[C@@H]1OCC2(CCN(c3cnc4c(=O)n(-c5ccnc(N)c5Cl)c(=O)[nH]c4n3)CC2)[C@@H]1N` [Compound 17, 3-(2-amino-3-chloropyridine-4-yl)-7-((3S,4S)-4-amino-3-methyl-2-oxa-8-azaspiro[4.5]decane-8-yl)pteridine-2,4(1H,3H)-dione], ≤ 10 nM; under `Nc1nccc(-n2c(=O)[nH]c3nc(N4CCC5(CC4)Cc4ccccc4[C@H]5N)cnc3c2=O)c1Cl` [Compound 18, (S)-7-(1-amino-1,3-dihydrospiro[indene-2,4′-piperidine]-1′-yl)-3-(2-amino-3-chloropyridine-4-yl)pteridine-2,4(1H,3H)-dione], ≤ 10 nM.
Under `Nc1nccc(-n2c(=O)[nH]c3nc(N4CCC5(CC4)Cc4ncccc4[C@H]5N)cnc3c2=O)c1Cl` [Compound 19, (S)-3-(2-amino-3-chloropyridine-4-yl)-7-(5-amino-5,7-dihydrospiro[cyclopenta[b]pyridine-6,4′-piperidine]-1′-yl)pteridine-2,4(1H,3H)-dione] stands ≤ 10 nM; under `Nc1nccc(-n2c(=O)[nH]c3nc(N4CCC5(CC4)Cc4cnccc4[C@H]5N)cnc3c2=O)c1Cl` [Compound 20, (S)-3-(2-amino-3-chloropyridine-4-yl)-7-(5-amino-5,7-dihydrospiro[cyclopenta[c]pyridine-6,4′-piperidine]-1′-yl)pteridine-2,4(1H,3H)-dione], ≤ 10 nM.
Consider `Nc1nccc(-n2c(=O)[nH]c3nc(N4CCC5(CC4)Cc4ccncc4[C@H]5N)cnc3c2=O)c1Cl` [Compound 21, (S)-3-(2-amino-3-chloropyridine-4-yl)-7-(7-amino-5,7-dihydrospiro[cyclopenta[c]pyridine-6,4′-piperidine]-1′-yl)pteridine-2,4(1H,3H)-dione], for which the IC50 is ≤ 10 nM.
Under `Nc1nccc(-n2c(=O)[nH]c3nc(N4CCC5(CC4)Cc4cccnc4[C@H]5N)cnc3c2=O)c1Cl` [Compound 22, (S)-3-(2-amino-3-chloropyridine-4-yl)-7-(7-amino-5,7-dihydrospiro[cyclopenta[b]pyridine-6,4′-piperidine]-1′-yl)pteridine-2,4(1H,3H)-dione] stands ≤ 10 nM; under `C[C@@H]1OCC2(CCN(c3cnc4c(=O)n(-c5ccnc(NC6CC6)c5Cl)c(=O)[nH]c4n3)CC2)[C@@H]1N` [Compound 23], ≤ 10 nM.
In the case of `N[C@@H]1c2ccncc2CC12CCN(c1cnc3c(=O)n(-c4ccnc(NC5CC5)c4Cl)c(=O)[nH]c3n1)CC2` [Compound 24], the IC50 is ≤ 10 nM.
As for `C[C@@H]1OCC2(CCN(c3ccc4c(=O)n(-c5cccc(Cl)c5Cl)c(=O)[nH]c4n3)CC2)[C@@H]1N` [Compound 25, 7-((3S,4S)-4-amino-3-methyl-2-oxa-8-azaspiro[4.5]decane-8-yl)-3-(2,3-dichlorophenyl)pyridinyl[2,3-d]pyrimidine-2,4(1H,3H)-dione], the IC50 was ≤ 10 nM.
Take `N[C@@H]1c2ccncc2CC12CCN(c1ccc3c(=O)n(-c4cccc(Cl)c4Cl)c(=O)[nH]c3n1)CC2` [Compound 26, (S)-7-(5-Amino-5,7-dihydrospiro [cyclopenta[c]pyridine-6,4′-piperidine]-1′-yl)-3-(2,3-dichlorophenyl)pyridinyl[2,3-d]pyrimidine-2,4(1H,3H)-dione]: the IC50 is ≤ 10 nM.
